Source: PMC11314561, “Design and Synthesis of Novel Aminoindazole-pyrrolo[2,3-b]pyridine Inhibitors of IKKα That Selectively Perturb Cellular Non-Canonical NF-κB Signalling” (Molecules, 2024)

Key:
Experiment in all cases: kinase panel
Format in all cases: biochemical
Aurora-A(h) = biological target: T1, Aurora-A(h) (Homo sapiens, UniProt O14965)
T1 sequence (O14965 1-403): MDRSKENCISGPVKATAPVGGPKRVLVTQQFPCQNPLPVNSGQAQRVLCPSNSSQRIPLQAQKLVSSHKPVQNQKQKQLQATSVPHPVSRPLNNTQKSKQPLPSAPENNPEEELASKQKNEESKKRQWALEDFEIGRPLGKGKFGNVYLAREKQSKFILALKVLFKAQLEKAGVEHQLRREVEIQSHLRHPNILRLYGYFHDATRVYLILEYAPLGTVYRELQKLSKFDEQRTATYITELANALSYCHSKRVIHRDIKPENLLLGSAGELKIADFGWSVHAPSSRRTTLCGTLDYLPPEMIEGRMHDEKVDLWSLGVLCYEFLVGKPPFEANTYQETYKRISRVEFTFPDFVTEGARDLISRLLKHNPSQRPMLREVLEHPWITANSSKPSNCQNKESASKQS
In short: (§1)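 Three compounds in the series were profiled against a panel of 231 kinases, and activity is reported as % inhibition. For one compound, a subset of 98 kinases was selected on the basis of its structural similarity to another series member.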

Aurora-C(h) = biological target: T2, Aurora-C(h) (Homo sapiens, UniProt Q9UQB9)
T2 sequence (Q9UQB9 1-309): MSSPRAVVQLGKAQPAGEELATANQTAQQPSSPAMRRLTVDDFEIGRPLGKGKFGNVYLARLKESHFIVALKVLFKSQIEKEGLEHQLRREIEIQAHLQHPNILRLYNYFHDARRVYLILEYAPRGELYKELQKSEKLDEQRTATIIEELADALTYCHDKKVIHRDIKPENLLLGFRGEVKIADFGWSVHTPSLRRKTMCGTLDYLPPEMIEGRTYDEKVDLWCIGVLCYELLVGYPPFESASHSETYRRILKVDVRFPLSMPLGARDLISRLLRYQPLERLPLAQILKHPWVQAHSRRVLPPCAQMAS
In short: as §1

CK2(h) = CK2(h) (Homo sapiens, UniProt P68400)
In short: as §1

DYRK2(h) = biological target: T3, DYRK2(h) (Homo sapiens, UniProt Q92630)
T3 sequence (Q92630 1-601): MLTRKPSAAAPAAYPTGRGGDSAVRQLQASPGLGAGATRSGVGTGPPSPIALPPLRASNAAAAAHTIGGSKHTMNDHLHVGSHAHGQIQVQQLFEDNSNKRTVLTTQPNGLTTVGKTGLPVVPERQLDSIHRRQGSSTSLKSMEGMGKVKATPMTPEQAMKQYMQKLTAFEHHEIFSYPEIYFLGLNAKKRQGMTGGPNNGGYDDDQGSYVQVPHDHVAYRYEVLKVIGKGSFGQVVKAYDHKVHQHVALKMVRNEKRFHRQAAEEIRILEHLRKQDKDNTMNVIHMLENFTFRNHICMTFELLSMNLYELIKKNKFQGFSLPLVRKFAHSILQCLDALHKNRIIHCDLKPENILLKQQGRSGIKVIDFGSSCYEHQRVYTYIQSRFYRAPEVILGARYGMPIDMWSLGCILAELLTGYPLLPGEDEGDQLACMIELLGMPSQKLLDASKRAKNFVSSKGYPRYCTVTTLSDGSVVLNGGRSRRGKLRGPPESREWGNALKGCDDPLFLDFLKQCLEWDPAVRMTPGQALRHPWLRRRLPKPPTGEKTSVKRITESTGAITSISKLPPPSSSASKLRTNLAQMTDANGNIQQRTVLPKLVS
In short: as §1

Fes(h) = Fes(h) (Homo sapiens, UniProt P07332)
In short: as §1

GSK3β(h) = GSK3β(h) (Homo sapiens, UniProt P49841)
In short: as §1

IRAK4(h) = biological target: T4, IRAK4(h) (Homo sapiens, UniProt Q9NWZ3)
T4 sequence (Q9NWZ3 1-460): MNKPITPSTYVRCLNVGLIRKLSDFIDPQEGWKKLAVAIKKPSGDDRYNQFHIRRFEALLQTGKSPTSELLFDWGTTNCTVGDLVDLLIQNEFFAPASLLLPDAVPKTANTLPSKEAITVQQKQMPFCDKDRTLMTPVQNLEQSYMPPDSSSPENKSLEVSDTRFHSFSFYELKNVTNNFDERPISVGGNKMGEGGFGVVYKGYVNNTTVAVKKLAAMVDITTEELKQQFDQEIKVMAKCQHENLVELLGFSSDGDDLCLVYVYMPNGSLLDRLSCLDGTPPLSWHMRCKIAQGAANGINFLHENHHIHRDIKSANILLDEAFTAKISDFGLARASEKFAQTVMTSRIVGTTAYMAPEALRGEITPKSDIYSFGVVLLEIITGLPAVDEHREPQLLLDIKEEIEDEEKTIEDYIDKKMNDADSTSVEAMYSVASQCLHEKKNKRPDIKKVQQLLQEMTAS
In short: as §1

Rsk1(h) = Rsk1(h) (Homo sapiens, UniProt Q15418)
In short: as §1

TAK1(h) = biological target: T5, TAK1(h) (Homo sapiens, UniProt O43318)
T5 sequence (O43318 1-303 limits assumed): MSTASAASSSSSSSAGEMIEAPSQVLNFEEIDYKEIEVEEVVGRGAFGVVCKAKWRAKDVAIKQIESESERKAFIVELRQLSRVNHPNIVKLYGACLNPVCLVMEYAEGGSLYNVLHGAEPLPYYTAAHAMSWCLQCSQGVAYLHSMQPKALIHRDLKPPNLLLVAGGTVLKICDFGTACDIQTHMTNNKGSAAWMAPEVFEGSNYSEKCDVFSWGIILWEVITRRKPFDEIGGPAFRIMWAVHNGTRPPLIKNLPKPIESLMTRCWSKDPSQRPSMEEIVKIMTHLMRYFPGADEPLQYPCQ
In short: as §1

ZIPK(h) = ZIPK(h) (Homo sapiens, UniProt O43293)
In short: as §1

ZIPK(h), sequence (O43293 whole entry): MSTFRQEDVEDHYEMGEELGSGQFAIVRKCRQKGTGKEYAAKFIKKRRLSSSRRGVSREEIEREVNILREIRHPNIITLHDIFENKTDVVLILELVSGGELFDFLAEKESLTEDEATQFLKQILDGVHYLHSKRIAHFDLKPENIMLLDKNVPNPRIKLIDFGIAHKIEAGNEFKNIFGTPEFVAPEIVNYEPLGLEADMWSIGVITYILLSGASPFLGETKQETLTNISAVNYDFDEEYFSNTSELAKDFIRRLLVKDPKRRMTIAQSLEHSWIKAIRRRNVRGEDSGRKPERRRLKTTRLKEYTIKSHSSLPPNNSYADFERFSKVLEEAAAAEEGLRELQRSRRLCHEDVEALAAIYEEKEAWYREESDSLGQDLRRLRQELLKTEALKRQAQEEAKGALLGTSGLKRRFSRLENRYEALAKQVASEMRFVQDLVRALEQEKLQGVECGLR
Rsk1(h), sequence (Q15418 whole entry): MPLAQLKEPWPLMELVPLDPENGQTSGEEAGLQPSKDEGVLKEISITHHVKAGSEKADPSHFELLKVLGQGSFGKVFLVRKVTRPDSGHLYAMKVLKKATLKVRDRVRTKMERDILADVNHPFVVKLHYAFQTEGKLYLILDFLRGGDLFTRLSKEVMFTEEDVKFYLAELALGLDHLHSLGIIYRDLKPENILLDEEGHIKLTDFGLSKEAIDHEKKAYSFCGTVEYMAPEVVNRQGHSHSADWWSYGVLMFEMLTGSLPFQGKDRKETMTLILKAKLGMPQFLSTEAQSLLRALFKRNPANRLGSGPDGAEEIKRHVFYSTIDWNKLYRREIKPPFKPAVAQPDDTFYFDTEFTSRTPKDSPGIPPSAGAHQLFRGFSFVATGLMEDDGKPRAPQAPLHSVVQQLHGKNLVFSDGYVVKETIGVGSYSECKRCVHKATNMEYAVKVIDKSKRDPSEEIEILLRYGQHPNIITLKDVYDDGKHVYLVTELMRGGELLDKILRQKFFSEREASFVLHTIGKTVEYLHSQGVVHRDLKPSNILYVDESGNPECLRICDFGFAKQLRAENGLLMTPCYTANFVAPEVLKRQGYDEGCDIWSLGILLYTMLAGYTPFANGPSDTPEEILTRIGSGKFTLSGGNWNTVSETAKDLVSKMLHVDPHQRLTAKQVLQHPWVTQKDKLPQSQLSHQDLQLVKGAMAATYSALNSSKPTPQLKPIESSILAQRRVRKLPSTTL
GSK3β(h), sequence (P49841 whole entry): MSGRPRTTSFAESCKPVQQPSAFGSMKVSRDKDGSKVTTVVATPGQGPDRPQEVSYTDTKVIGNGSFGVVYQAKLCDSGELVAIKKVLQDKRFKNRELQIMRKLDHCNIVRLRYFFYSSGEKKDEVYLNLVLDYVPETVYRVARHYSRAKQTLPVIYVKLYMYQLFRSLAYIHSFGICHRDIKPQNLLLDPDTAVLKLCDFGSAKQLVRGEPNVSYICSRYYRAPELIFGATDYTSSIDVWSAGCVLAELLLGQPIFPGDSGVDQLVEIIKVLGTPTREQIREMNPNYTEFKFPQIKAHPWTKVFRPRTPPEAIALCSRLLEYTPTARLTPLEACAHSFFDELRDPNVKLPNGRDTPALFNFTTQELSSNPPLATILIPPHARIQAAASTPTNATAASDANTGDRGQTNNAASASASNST
CK2(h), sequence (P68400 whole entry): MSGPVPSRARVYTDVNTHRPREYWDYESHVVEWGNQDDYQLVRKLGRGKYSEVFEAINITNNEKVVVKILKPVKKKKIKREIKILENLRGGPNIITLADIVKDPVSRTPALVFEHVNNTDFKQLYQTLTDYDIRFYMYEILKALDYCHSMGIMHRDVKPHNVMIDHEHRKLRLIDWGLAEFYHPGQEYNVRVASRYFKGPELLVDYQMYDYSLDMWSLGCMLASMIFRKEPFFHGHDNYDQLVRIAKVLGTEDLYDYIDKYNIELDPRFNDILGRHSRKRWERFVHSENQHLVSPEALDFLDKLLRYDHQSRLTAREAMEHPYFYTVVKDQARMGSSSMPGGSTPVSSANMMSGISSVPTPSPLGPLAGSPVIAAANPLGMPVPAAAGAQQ
CK2(h), sequence (P67870 whole entry partner): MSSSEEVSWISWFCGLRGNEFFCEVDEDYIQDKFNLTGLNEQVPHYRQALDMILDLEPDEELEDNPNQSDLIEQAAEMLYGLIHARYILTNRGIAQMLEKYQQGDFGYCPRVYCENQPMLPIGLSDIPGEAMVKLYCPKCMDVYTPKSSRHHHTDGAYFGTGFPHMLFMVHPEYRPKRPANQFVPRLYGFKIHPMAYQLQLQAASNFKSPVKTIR
Fes(h), sequence (P07332 whole entry): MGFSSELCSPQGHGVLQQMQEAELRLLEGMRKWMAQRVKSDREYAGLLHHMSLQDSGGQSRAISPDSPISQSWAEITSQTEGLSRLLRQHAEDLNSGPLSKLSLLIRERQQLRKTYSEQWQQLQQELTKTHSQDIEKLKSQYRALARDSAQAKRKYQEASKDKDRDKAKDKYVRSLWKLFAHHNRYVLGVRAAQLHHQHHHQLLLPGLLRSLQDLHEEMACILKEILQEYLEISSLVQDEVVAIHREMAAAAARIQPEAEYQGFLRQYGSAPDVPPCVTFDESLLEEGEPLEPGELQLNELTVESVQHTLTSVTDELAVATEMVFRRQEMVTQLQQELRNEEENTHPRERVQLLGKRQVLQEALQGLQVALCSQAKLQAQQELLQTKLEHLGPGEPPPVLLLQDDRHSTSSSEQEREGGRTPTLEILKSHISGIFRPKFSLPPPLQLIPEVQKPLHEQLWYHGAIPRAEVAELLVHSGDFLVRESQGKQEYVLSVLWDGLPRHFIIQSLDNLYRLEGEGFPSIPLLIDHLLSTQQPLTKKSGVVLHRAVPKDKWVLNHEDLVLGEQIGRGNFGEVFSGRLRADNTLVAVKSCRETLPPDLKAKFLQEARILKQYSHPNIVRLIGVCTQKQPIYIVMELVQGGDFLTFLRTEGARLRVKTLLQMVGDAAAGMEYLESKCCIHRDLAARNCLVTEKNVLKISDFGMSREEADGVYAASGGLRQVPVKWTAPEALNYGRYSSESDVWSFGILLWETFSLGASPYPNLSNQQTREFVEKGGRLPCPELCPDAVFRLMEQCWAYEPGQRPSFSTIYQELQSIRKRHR

Row | Structure (SMILES) | inhibition at 1 µM (Aurora-A(h)) [%] | inhibition at 1 µM (Aurora-C(h)) [%] | inhibition at 1 µM (CK2(h)) [%] | inhibition at 1 µM (DYRK2(h)) [%] | inhibition at 1 µM (Fes(h)) [%] | inhibition at 1 µM (GSK3β(h)) [%] | inhibition at 1 µM (IRAK4(h)) [%] | inhibition at 1 µM (Rsk1(h)) [%] | inhibition at 1 µM (TAK1(h)) [%] | inhibition at 1 µM (ZIPK(h)) [%]
1 | Nc1n[nH]c2ccc(-c3ccnc4[nH]c(-c5cccc(OCc6ccccc6)c5)cc34)cc12 [Compound 5r [SU1261]] | 52 | 32 | -5 | 14 | 50 | 57 | 3 | 2 | 6 | 0
2 | Nc1n[nH]c2ccc(-c3ccnc4[nH]c(-c5ccnc(OCc6ccccc6)c5)cc34)cc12 [Compound 6g [SU1349]] | 36 | 19 | 2 | 9 | -31 | 5 | -8 | -18 | 0 | 1
3 | Nc1n[nH]c2ccc(-c3ccnc4[nH]c(-c5ccccc5)cc34)cc12 [Compound 4] | 88 | 90 | -7 | 43 | 80 | 92 | 25 | 38 | 28 | -7
